Assay [1] deals with T1, Leucine-Rich Repeat Kinase 2 (LRRK2) WDR40 domain (Homo sapiens, UniProt Q5S007).
T1 construct: WDR40 domain
T1 sequence (Q5S007 2142-2527 limits assumed): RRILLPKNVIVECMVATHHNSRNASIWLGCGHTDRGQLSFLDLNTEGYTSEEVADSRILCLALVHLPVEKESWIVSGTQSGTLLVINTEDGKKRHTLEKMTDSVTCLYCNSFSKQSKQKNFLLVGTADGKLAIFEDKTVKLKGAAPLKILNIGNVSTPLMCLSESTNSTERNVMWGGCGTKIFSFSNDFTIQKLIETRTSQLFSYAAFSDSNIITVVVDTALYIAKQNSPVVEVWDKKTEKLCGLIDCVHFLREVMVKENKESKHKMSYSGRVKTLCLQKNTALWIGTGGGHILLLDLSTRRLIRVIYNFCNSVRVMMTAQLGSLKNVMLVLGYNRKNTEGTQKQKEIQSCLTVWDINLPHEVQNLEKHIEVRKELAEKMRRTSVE
Put plainly: SPR; weak DSF stabilization (ΔTm […] °C). It counts as binding. Background: SPR reads the build-up and loss of mass on a sensor chip optically.

Assay [2] addresses T1, Leucine-Rich Repeat Kinase 2 (LRRK2) WDR40 domain. In words: SPR (not confirmed by orthogonal assays). Type of assay: binding.

The compound `CSc1ccc(CNc2cccc(-n3cnnn3)c2)cc1` [D, N-[4-(methylsulfanyl)phenyl]methyl-3-(1 H-1,2,3,4-tetrazol-1-yl)aniline] gave a Kd in assay [1] of 100 µM.

`O=c1[nH]c2ccc(CNc3cccc(-n4cnnn4)c3)cc2[nH]1` [B, compound B] came in with a Kd in assay [2] of 35 µM.

For `Cn1nnc(-c2ccccc2)c1CNc1cccc(-n2cnnn2)c1` [A, N-[(1-methyl-4-phenyl-1 H-1,2,3-triazol-5-yl)methyl]-3-(1 H-1,2,3,4-tetrazol-1-yl)-aniline], in assay [2], the Kd was determined as 59 µM.

As a reminder, the Kd is a measure of binding affinity in units of concentration. Low readings indicate a tighter complex, high ones a looser complex.
